The source of these data is patent US8012463B2, “Coordination complex of diaminocyclohexaneplatinum(II) with block copolymer containing poly(carboxylic acid) segment and antitumor agent comprising the same” (Toudai TLO, Ltd., priority 2003, dated 2011).

The subject of data set [1] is ascites sarcoma 180. The note with it: cited from earlier work.
Data set [2] deals with mouse colon 26 (C-26) cell strain. Nature of the data set: Cytotoxicity in vitro, growth inhibition by MTT method. The note with it: C-26 cells. The format is cell-based. The method, then:
Growth inhibiting activities of free CDDP, CDDP micelle, DACH Pt micelle, mixtures of DACH Pt micelle and CDDP micelle at various mixing ratios (1/3, 1/1 and 3/1) against mouse colon 26 (C-26) cell strain were evaluated with MTT method. 5,000 cells were cultured in a 96 well-multiplate supplied with 50 μl of RPMI 1640 medium containing 10% fetal bovine serum. The cells were exposed to drugs for 48 and 72 hours. MTT solution was added, and 150 μl of a solution containing 10 wt % of sodium dodecylsulfate (SDS) supplemented with 0.01M HCl was added after 6 hours. Viability of cells was then measured based on optical density at 570 nm of formazan produced after 24 hours.
Background: Tetrazolium dyes change colour on reduction, which living cells bring about.

In the case of `O=C1[O][Pt-2]2([NH2+]C3CCCC[C@H]3[NH2+]2)[O]C1=O` (some centres unmarked) [Pt(oxalato)-(dach)], the ED90 result in data set [1] (experimental animals bearing ascites sarcoma 180) is recorded as “excellent ED90”.

For the compound `NC1CCCCC1N.O=C([O-])CC(=O)[O-].[Pt+2]` (centres unmarked) [Pt(malonato)-(dach)], in data set [1] (in vivo), the “therapeutic index relative to Pt(oxalato)-(cis-dach)” value is on record as “half or less”. For the same compound, in data set [1] (ratio to Pt(oxalato)-(dach)), the “ED90 dose compared with Pt(oxalato)-(dach)” value is on record as at least 5 times.

The IC50 is the point on the concentration scale where inhibition reaches its midpoint. Low readings indicate inhibition by little substance, high ones a need for much substance. For `N.N.[Cl][Pt][Cl]` [Free CDDP, Cisplatin], the values for the IC50 in data set [2] (culture time 48 hours) and in data set [2] (culture time 72 hours) were 1.5 µg/mL and 0.65 µg/mL, respectively.
